One compound from ChEMBL document CHEMBL4602617, “Discovery and optimization of heteroaryl piperazines as potent and selective PI3Kδ inhibitors” (Bioorg Med Chem Lett, 2020) can be followed below.

One may read the IC50 as the point on the concentration scale where inhibition reaches its midpoint. A word on the inhibition: it is the relative decrease from the control value, in per cent.

In data set [1] the target is Tyrosine-protein kinase Srms (Homo sapiens, UniProt Q9H3Y6). The data set is described as follows: Inhibition of recombinant full length human GST-tagged SRM expressed in baculovirus expression system using tyrosine-1 peptide as substrate incubated for 60 mins in presence of ATP by Z'-LYTE assay.
Data set [2] addresses Ephrin type-A receptor 1 (Homo sapiens, UniProt P21709). Description: Inhibition of recombinant human GST-tagged EPHA1 cytoplasmic domain (568 to 976 residues) expressed in baculovirus expression system using Tyr 02 as substrate after 1 hr in presence of ATP by Z'LYTE assay.
Data set [3] deals with Dual specificity protein kinase CLK1 (Homo sapiens, UniProt P49759). Description: Inhibition of recombinant human GST-tagged CLK1 catalytic domain (129 to 484 residues) expressed in Escherichia coli expression system using serine/threonine-9 peptide as substrate incubated for 60 mins in presence of ATP by Z'-LYTE assay.
The species named for data set [4] is Homo sapiens. Description: Inhibition of recombinant human PKA expressed in Escherichia coli at 10 uM using peptide as substrate after 15 mins by radiometric scintillation analysis relative to control.
Data set [5] concerns the target Neurotensin receptor type 1 (Homo sapiens) (UniProt P30989). The data set is described as follows: Displacement of [125I]neurotensin from NT1 receptor in human HEK293 EBNA cell membranes at 10 uM measured after 45 mins by radiometric scintillation analysis relative to control.
For data set [6], the target named is Serine/threonine-protein kinase PAK 4 (Homo sapiens, UniProt O96013). Description: Inhibition of recombinant human GST-tagged PAK4 catalytic domain (295 to 591 residues) expressed in baculovirus expression system using serine/threonine-20 peptide as substrate incubated for 60 mins in presence of ATP by Z'-LYTE assay.
Data set [7] is described as follows: Protein binding in rat plasma at 0.5 mg/kg, iv or 1 mg/kg, po. Particulars: read-out: PPB (converted). Format: ADME, organism-based.
Data set [8] has as its target Tyrosine-protein kinase JAK2 (Homo sapiens, UniProt O60674). Description: Inhibition of human recombinant N-terminal GST tagged JAK2 JH1 catalytic domain (532 to 1132 residues) expressed in baculovirus expression system using Tyr6 peptide as measured after 1 hr in presence of ATP by Z'-LYTE assay.
In data set [9] the target is Tyrosine-protein kinase JAK3 (Homo sapiens, UniProt P52333). Description: Inhibition of recombinant human GST-tagged JAK3 catalytic domain (781 to 1124 residues) expressed in baculovirus expression system using tyrosine-6 peptide as substrate incubated for 60 mins in presence of ATP by Z'-LYTE assay.
For data set [10], the target named is Serine/threonine-protein kinase Sgk2 (Homo sapiens, UniProt Q9HBY8). Description: Inhibition of recombinant human GST-tagged SGK2 catalytic domain (54 to 427 residues) expressed in baculovirus expression system using serine/threonine-6 peptide as substrate incubated for 60 mins in presence of ATP by Z'-LYTE assay.
In data set [11] the target is AMP-activated protein kinase (AMPK) alpha-1/beta-1/gamma-1 (Homo sapiens, UniProt P54619+Q13131+Q9Y478). The data set is described as follows: Inhibition of recombinant full length GST/His-tagged human AMPK alpha1/beta1/gamma1 expressed in insect cells using Ser/Thr-23 peptide as substrate incubated for 60 mins in presence of ATP by Z'-LYTE assay.
The target of data set [12] is Homeodomain-interacting protein kinase 4 (Homo sapiens, UniProt Q8NE63). Description: Inhibition of recombinant full length human N-terminal GST-tagged HIPK4 expressed in baculovirus expression system using serine/threonine-18 peptide as substrate incubated for 60 mins in presence of ATP by Z'-LYTE assay.
Data set [13] addresses Serine/threonine-protein kinase PAK 1 (Homo sapiens, UniProt Q13153). Description: Inhibition of recombinant full length human GST-tagged PAK1 expressed in baculovirus expression system using serine/threonine-19 peptide as substrate incubated for 60 mins in presence of ATP by Z'-LYTE assay.
Data set [14] concerns the target Insulin receptor-related protein (Homo sapiens, UniProt P14616). The data set is described as follows: Inhibition of recombinant human GST-tagged INSRR cytoplasmic domain expressed in baculovirus expression system using tyrosine-1 peptide as substrate incubated for 60 mins in presence of ATP by Z'-LYTE assay.
In data set [15] the target is Vasopressin V2 receptor (Homo sapiens) (UniProt P30518). The data set is described as follows: Displacement of [3H]-(Arg8)-Vasopressin from recombinant full length human V2 receptor expressed in CHO-K1 cells at 10 uM after 120 mins by radiometric scintillation analysis relative to control. Format: cell-based.
Data set [16] deals with MAP/microtubule affinity-regulating kinase 4 (Homo sapiens, UniProt Q96L34). The data set is described as follows: Inhibition of recombinant full length human GST-tagged MARK4 expressed in baculovirus expression system using serine/threonine-25 peptide as substrate incubated for 60 mins in presence of ATP by Z'-LYTE assay.
The target of data set [17] is High affinity nerve growth factor receptor (Homo sapiens, UniProt P04629). The data set is described as follows: Inhibition of recombinant human His-tagged NTRK1 cytoplasmic domain expressed in baculovirus expression system using FRET-labeled tyr 07 peptide as substrate measured after 1 hr in presence of ATP by Z'-lyte assay.
Data set [18] concerns the target Tyrosine-protein kinase Fer (Homo sapiens, UniProt P16591). Description: Inhibition of recombinant GST-tagged human FER (541 to 822 residues) cytoplasmic domain expressed in baculovirus expression system using Tyr 05 peptide as substrate after 1 hr in presence of ATP by Z'-LYTE assay.
Data set [19] has as its target Cholecystokinin receptor type A (Homo sapiens) (UniProt P32238). The data set is described as follows: Displacement of [3H]L-364,718 from recombinant full length human recombinant CCK1 expressed in 1321-N1 cells at 10 uM measured after 60 mins by radiometric scintillation analysis relative to control. It counts as cell-based. On the technique in general: Displacement assays read how much labelled ligand stays bound in the presence of the test substance.

Data set [20] deals with Death-associated protein kinase 1 (Homo sapiens, UniProt P53355). Description: Inhibition of recombinant human GST-tagged DAPK1 catalytic domain (1 to 363 residues) expressed in baculovirus expression system using ZIPtide peptide as substrate incubated for 60 mins in presence of ATP by Adapta assay.
Data set [21] deals with 5-hydroxytryptamine receptor 1B (Rattus norvegicus) (UniProt P28564). The data set is described as follows: Displacement of [125I]cyanopindolol from 5HT1B receptor in Wistar rat cerebral cortical membranes at 10 uM measured after 90 mins by radiometric scintillation analysis relative to control.
The target in data set [22] is Epidermal growth factor receptor (Homo sapiens, UniProt P00533, L858R). Description: Inhibition of human recombinant GST-tagged EGFR L858R mutant expressed in baculovirus expression system using tyrosine 4 peptide as substrate after 60 mins in presence of ATP FRET based Z'-LYTE assay.
Data set [23] deals with Dual specificity mitogen-activated protein kinase kinase 6 (Homo sapiens, UniProt P52564). The data set is described as follows: Inhibition of recombinant full length human His-tagged MAP2K6 expressed in baculovirus expression system using serine/threonine-3 peptide as substrate incubated for 60 mins in presence of ATP by Z'-LYTE assay.
Data set [24] has as its target Adenosine receptor A1 (Homo sapiens) (UniProt P30542). Description: Displacement of [3H]DPCPX from full length recombinant human A1AR expressed in CHO cell membranes at 10 uM measured after 90 mins by scintillation counting method relative to control.

Sequence of High affinity nerve growth factor receptor (P04629 whole entry, the tested form may be a part): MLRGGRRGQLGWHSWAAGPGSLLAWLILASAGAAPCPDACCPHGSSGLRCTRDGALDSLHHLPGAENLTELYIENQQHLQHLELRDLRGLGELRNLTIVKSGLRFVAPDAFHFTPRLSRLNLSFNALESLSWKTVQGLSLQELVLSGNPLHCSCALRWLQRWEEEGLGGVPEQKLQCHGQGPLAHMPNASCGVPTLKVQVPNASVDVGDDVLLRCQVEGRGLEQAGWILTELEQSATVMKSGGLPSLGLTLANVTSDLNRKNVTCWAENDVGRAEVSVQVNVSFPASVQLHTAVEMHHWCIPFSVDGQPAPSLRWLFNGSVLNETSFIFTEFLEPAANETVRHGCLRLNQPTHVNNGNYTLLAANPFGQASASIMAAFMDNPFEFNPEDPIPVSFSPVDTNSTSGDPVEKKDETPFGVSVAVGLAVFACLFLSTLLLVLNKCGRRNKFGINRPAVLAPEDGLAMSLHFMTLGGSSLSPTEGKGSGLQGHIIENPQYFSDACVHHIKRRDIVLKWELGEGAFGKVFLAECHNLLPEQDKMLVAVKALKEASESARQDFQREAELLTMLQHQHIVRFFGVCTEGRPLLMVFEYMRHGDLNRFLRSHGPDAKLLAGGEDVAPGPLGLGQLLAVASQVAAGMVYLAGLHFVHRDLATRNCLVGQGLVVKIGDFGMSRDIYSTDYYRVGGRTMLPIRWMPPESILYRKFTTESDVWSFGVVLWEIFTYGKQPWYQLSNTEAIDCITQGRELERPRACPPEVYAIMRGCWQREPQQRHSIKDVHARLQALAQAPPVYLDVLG
Sequence of Tyrosine-protein kinase JAK2 (O60674 whole entry, the tested form may be a part): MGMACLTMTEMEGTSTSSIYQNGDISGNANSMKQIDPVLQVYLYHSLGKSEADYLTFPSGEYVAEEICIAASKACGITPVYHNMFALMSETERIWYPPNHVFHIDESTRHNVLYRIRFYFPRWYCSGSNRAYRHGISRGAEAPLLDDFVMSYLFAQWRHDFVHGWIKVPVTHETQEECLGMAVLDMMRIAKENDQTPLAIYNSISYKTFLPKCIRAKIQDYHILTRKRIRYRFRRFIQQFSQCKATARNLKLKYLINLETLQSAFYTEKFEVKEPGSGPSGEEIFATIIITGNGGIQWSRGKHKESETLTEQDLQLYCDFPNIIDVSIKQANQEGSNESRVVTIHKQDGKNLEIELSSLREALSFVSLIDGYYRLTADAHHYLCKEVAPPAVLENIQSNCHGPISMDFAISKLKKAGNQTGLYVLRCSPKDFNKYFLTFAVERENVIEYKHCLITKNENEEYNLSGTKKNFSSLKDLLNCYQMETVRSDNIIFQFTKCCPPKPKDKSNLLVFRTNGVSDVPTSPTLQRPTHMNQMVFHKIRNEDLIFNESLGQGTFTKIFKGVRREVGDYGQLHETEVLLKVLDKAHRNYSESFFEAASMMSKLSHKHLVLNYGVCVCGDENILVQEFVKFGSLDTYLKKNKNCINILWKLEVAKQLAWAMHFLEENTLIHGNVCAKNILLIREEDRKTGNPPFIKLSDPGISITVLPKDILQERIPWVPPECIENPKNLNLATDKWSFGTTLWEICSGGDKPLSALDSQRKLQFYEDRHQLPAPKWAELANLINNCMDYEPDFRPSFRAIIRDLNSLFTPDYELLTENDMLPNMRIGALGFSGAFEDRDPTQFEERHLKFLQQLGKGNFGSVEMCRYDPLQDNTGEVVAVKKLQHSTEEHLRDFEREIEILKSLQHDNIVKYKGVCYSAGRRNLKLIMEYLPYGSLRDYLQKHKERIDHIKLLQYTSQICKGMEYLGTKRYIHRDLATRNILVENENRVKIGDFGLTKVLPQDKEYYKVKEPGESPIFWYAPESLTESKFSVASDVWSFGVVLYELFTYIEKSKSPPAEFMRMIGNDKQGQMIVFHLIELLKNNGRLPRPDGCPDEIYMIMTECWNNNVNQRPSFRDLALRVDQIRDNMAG
Sequence of Cholecystokinin receptor type A (Homo sapiens) (P32238 whole entry): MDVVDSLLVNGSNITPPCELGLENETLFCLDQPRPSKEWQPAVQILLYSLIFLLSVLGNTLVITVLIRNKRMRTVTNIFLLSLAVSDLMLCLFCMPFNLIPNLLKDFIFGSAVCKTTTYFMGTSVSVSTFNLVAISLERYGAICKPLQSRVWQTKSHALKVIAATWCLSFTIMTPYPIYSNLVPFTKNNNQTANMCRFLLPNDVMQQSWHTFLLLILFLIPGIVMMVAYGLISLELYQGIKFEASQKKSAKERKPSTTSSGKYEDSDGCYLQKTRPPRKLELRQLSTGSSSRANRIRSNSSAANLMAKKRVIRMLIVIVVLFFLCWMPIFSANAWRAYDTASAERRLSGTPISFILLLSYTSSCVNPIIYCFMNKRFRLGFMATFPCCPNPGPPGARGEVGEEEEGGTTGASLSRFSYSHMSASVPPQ
Sequence of Ephrin type-A receptor 1 (P21709 whole entry, the tested form may be a part): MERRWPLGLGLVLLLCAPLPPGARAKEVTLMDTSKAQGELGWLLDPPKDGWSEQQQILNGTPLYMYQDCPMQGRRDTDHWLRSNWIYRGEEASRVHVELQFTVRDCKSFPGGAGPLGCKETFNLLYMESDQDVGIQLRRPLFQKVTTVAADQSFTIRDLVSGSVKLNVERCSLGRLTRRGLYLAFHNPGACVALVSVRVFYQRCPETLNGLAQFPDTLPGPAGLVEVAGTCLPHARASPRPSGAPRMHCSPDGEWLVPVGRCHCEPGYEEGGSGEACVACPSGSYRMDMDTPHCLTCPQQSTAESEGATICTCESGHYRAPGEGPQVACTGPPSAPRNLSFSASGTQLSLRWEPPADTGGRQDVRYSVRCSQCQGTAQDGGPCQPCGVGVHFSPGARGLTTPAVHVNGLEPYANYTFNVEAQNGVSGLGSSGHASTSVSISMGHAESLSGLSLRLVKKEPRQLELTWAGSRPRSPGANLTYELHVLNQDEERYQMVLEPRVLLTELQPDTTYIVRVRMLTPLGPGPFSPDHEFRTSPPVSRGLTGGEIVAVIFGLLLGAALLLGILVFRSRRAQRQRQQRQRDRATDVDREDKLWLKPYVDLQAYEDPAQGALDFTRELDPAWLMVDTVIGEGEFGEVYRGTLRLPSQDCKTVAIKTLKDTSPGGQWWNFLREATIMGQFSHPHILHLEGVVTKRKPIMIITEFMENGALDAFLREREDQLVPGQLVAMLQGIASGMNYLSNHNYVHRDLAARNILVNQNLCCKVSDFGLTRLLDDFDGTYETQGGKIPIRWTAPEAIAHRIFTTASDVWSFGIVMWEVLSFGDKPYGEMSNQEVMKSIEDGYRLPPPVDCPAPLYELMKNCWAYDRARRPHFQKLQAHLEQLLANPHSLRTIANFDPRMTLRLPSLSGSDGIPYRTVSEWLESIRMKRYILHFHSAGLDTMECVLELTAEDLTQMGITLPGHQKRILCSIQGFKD
Sequence of Serine/threonine-protein kinase PAK 1 (Q13153 whole entry, the tested form may be a part): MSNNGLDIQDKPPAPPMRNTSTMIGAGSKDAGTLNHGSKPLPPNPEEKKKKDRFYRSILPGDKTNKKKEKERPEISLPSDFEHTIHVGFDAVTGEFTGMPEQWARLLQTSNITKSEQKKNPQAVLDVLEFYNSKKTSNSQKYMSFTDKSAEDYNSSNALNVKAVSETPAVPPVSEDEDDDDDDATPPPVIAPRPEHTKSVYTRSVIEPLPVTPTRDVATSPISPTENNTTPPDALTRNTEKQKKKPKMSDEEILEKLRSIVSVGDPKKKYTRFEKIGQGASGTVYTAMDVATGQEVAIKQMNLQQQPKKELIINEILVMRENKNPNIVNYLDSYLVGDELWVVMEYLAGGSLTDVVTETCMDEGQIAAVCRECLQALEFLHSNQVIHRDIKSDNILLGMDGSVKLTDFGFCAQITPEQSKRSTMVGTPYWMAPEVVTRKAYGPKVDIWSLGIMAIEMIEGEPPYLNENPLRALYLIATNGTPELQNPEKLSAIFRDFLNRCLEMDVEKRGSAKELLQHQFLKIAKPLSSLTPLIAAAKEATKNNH
Sequence of Tyrosine-protein kinase Fer (P16591 whole entry, the tested form may be a part): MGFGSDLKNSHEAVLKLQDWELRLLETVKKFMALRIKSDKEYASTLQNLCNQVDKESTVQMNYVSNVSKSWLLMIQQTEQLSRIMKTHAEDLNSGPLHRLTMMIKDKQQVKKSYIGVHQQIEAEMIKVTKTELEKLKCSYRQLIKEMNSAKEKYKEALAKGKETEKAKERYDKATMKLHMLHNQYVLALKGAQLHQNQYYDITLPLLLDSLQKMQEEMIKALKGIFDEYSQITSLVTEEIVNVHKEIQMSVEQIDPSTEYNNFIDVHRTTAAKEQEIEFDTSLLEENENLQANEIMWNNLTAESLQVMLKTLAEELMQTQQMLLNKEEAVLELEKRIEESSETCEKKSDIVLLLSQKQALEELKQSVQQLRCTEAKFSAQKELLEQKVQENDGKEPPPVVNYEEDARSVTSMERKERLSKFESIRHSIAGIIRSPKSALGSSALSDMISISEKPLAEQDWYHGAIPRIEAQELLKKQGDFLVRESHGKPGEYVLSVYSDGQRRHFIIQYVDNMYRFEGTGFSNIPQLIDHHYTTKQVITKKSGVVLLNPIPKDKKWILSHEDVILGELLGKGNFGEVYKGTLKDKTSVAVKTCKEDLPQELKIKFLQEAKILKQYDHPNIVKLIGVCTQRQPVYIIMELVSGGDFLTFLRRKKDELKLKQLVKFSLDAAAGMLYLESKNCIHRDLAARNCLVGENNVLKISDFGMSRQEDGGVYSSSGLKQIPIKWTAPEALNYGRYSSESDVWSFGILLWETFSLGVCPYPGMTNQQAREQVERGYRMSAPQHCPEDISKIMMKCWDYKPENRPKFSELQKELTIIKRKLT
Sequence of Vasopressin V2 receptor (Homo sapiens) (P30518 whole entry): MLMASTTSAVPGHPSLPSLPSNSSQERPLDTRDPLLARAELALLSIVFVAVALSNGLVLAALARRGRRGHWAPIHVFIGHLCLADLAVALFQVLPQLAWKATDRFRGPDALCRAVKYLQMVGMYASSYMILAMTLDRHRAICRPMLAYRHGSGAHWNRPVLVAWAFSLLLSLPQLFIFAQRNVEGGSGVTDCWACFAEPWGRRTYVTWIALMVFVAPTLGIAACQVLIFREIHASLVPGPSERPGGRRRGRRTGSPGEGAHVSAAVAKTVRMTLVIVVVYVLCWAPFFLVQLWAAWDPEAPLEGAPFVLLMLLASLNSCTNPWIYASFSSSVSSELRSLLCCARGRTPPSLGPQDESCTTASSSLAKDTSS

On to `C[C@@H]1C[C@H]1C(=O)N1CCN(c2cnc(C#N)c(-c3cnn(C)c3)n2)C[C@H]1C`, for which the 50% inhibitory concentration (IC50) was > 100 µM in data set [1]; 34 µM in data set [2]; > 100 µM in data set [3]; > 100 µM in [6]; > 100 µM in data set [8]; 13.7 µM in [9]. The half-maximal inhibitory concentration (IC50) in [10], in data set [11], in [12], in [13], in data set [14] and in data set [16] was > 100 µM each time. The concentration for half-maximal inhibition (IC50) in [17], in data set [18], in [20], in data set [22] and in data set [23] was > 100 µM throughout. The inhibition is -3% in [4]; 1% in data set [5]; 1% in [15]; 3% in data set [19]; -5% in data set [21]; 10% in [24]. In addition, the fraction unbound in data set [7] was 0.152.
